Conditions: Liquid, Vibrating tube method

CCCCCC [hexane]
Conditions	mass density [kg/m3]
342.73 K, 1010 kPa	613.9
342.73 K, 2010 kPa	615.5
342.73 K, 3011 kPa	617.1
342.73 K, 4010 kPa	618.6
342.73 K, 5005 kPa	620
342.73 K, 6031 kPa	621.6
342.73 K, 7020 kPa	623
342.73 K, 8009 kPa	624.4
342.73 K, 9015 kPa	625.7
342.73 K, 10012 kPa	627
342.73 K, 11006 kPa	628.4
342.73 K, 12014 kPa	629.7
342.73 K, 13011 kPa	630.9
342.73 K, 14014 kPa	632.2
342.73 K, 15008 kPa	633.4
342.73 K, 16006 kPa	634.6
342.73 K, 17021 kPa	635.7
342.73 K, 18016 kPa	636.9
342.73 K, 19025 kPa	638
342.73 K, 20037 kPa	639.2
342.73 K, 21025 kPa	640.3
342.73 K, 22016 kPa	641.3
342.73 K, 23010 kPa	642.5
342.73 K, 24023 kPa	643.5
342.73 K, 25006 kPa	644.5
352.56 K, 1017 kPa	604
352.56 K, 2028 kPa	605.8
352.56 K, 3030 kPa	607.6
352.56 K, 4024 kPa	609.2
352.56 K, 5022 kPa	610.9
352.56 K, 6024 kPa	612.5
352.56 K, 7027 kPa	614
352.56 K, 8021 kPa	615.5
352.56 K, 9022 kPa	617
352.56 K, 10020 kPa	618.4
352.56 K, 11023 kPa	619.9
352.56 K, 12003 kPa	621.2
352.56 K, 13021 kPa	622.6
352.56 K, 14012 kPa	623.9
352.56 K, 15007 kPa	625.2
352.56 K, 16016 kPa	626.5
352.56 K, 17012 kPa	627.7
352.56 K, 18015 kPa	629
352.56 K, 19003 kPa	630.2
352.56 K, 20040 kPa	631.4
352.56 K, 21005 kPa	632.5
352.56 K, 22035 kPa	633.8
352.56 K, 23002 kPa	634.8
352.56 K, 24039 kPa	636
352.56 K, 25000 kPa	637.1
362.4 K, 1029 kPa	593.8
362.4 K, 2020 kPa	595.8
362.4 K, 3028 kPa	597.6
362.4 K, 4029 kPa	599.5
362.4 K, 5040 kPa	601.3
362.4 K, 6026 kPa	602.9
362.4 K, 7026 kPa	604.7
362.4 K, 8004 kPa	606.3
362.4 K, 9007 kPa	607.9
362.4 K, 10009 kPa	609.4
362.4 K, 11009 kPa	610.9
362.4 K, 12010 kPa	612.5
362.4 K, 13000 kPa	614
362.4 K, 14028 kPa	615.5
362.4 K, 15017 kPa	616.8
362.4 K, 16014 kPa	618.1
362.4 K, 17004 kPa	619.5
362.4 K, 18002 kPa	620.9
362.4 K, 18988 kPa	622.1
362.4 K, 20027 kPa	623.4
362.4 K, 21002 kPa	624.7
362.4 K, 22018 kPa	625.9
362.4 K, 23013 kPa	627.1
362.4 K, 24001 kPa	628.4
362.4 K, 25000 kPa	629.5
